Here are results for 23 substances from publication PMC2765508 (Biochemistry, 2009).

Entries after “also recorded” stand apart in the source; their conditions may differ.

In data set [1] the target is T1, human MP1 (Homo sapiens, UniProt Q5JRX3).
T1 sequence (Q5JRX3 29-1037): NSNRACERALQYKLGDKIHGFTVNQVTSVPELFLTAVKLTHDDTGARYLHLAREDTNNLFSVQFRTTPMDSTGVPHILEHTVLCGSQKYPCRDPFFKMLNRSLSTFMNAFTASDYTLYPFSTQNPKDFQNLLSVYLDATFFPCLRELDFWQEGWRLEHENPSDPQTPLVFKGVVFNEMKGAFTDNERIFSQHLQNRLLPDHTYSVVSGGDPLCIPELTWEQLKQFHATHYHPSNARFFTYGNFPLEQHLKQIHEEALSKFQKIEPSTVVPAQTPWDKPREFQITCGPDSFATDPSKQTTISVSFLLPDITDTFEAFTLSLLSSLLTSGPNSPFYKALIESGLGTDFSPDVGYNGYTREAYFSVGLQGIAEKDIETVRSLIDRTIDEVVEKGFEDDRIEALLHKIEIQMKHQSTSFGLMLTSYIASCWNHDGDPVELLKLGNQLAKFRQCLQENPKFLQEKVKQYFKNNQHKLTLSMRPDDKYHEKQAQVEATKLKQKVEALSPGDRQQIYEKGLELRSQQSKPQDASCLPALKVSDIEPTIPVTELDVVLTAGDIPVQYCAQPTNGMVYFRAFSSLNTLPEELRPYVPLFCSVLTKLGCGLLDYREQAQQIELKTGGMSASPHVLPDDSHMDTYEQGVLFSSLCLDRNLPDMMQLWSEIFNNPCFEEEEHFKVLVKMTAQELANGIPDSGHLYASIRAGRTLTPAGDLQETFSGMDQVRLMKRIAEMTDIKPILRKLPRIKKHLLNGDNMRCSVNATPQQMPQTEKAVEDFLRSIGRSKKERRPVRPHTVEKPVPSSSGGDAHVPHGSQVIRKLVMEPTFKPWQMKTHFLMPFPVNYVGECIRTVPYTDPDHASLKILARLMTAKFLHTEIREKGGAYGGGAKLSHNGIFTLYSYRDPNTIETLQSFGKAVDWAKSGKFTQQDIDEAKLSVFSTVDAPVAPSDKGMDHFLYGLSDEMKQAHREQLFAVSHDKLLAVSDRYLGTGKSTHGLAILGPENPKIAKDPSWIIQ
It is filed as biochemical. To be noted: for kcat/Km: from kcat (HPLC) and Km (alternate substrate inhibition).

The test system of data set [2] is MP1 (metallopeptidase 1, mammalian pitrilysin). Briefly: purified recombinant human MP1.
Another data set concerns MP1. In words: 2 μg of MP1 in 25 mM Tris buffer, pH 7.5. To be noted: human.
In a further data set the test system is protease III. To be noted: cited from earlier work.
The next data set deals with nardilysin. To be noted: cited from earlier work.
The next data set relates to insulysin. To be noted: cited from earlier work.
For data set [3], the target named is T1, human MP1. It is filed as biochemical. To be noted: 27 amino acid citrate synthase presequence peptide as MP1 substrate.

As to RPKPQQF↓FG▼LM [Substance P], at human MP1 [1], the kcat/Km worked out at 23.6 ± 2.5 M × min^−1 × 10^5.

For YGGFL, in data set [2], the cleaved bond entry is “Y-G, first_seen”.

As to YGGFLRRQFKVVT, in data set [2], the cleaved bond result is “Y-G, minor; also recorded: F-K, minor; also recorded: K-V, first_seen”.

Regarding “CGNLSTC▼MLG▼TYTQDFNK↓FHTFPQTAIGVGAP [Calcitonin]”, at human MP1 [1], the kcat/Km came out at 15.4 ± 0.6 M × min^−1 × 10^5.

In the case of YGGFMTSEKSETPLVTLFKNAIIKNAYKKGE, the cleaved bond entry in the data set with MP1 was “Phe-M, minor; also recorded: Thr16-Leu17, minor; also recorded: Pro13-Leu14, minor; also recorded: Leu14-Val15, minor”.

Regarding CGNLSTCMLGTYTQDFNKFHTFPQTAIGVGAP, the cleaved bond entry in data set [2] is reported as “C-M, first_seen; also recorded: G-T, first_seen; also recorded: K-F, minor”.

As for RPPG▼FSPFR [Bradykinin], the “cleavage by protease III” value in the data set with protease III is on record as “not cleaved”. The kcat/Km on human MP1 [1] is 21.8 ± 1.2 M × min^−1 × 10^5. Further, the cleavage by nardilysin result in the data set on nardilysin was “not cleaved”. For the same substance, in the data set on insulysin, the cleavage by insulysin result is given as “not cleaved”.

Consider YGGFLRRIRPKLKWDNQ, for which the cleaved bond result in data set [2] was “R-I, minor; also recorded: P-K, first_seen; also recorded: Y-G, minor”.

SLRRSSCFGGRMDRIGAQSGLGCNSFRY: the cleaved bond entry in data set [2] is “D-R, first_seen; also recorded: S-F, first_seen”.

Regarding “DAEFRHDSGYEVHHQKLVFF▼AEDVGSNKGAIIGL↓MVGGVV [β-Amyloid (1–40)]”, the kcat/Km at human MP1 [1] worked out at 19.5 ± 1.1 M × min^−1 × 10^5.

On to RPKPQQFFGLM, for which the cleaved bond result in data set [2] is reported as “F-F, minor; also recorded: G-L, first_seen”.

YADAIFTNSYRKVLGQLSARKLQDIMQQGESNQERGA: the cleaved bond entry in data set [2] is “Y-A, minor; also recorded: G-Q, first_seen; also recorded: S-A, first_seen”.

Turning to Y↓GGFLRRQF↓K▼VVT [Dynorphin B], the kcat/Km on human MP1 [1] worked out at 46.3 ± 6.8 M × min^−1 × 10^5.

Turning to YGGFL [Leu-enkephalin], the kcat/Km on human MP1 [1] amounted to 18.7 ± 2.1 M × min^−1 × 10^5.

Regarding “Y↓ADAIFTNSYRKVLG▼QLS▼ARKL↓QDIMQQGESNQERGA [Growth Hormone Releasing factor]”, the kcat/Km on human MP1 [1] is reported as 29.4 ± 3.4 M × min^−1 × 10^5.

Regarding “SLRRSSCFGGRMD▼RIGAQSGLGCNS▼FRY (disulfide) [Atrial natriuretic peptide]”, the kcat/Km on human MP1 [1] is 199.2 ± 18.6 M × min^−1 × 10^5.

Take “YGG↓F↓MTSEKSETPLV↓T↓L▼FKNA▼IIKNAYKKGE [β-endorphin]”: the kcat/Km at human MP1 [1] came to 62.6 ± 5.1 M × min^−1 × 10^5.

For the substance Angiotensin I, the “cleavage by protease III” value with protease III is listed as “not cleaved”. Besides, the kcat/Km at human MP1 [1] came out at 44.6 ± 4.3 M × min^−1 × 10^5. In addition, the cleavage by nardilysin result in the data set on nardilysin was “not cleaved”. In addition, in the data set on insulysin, the cleavage by insulysin result was “not cleaved”.

By kcat is commonly meant the number of substrate molecules converted per active site and unit of time at saturation. By Km is commonly meant the substrate concentration at which the rate is half of its maximum. Regarding “MALLTAAARLFGAKNASCLVLAARHAS-NH2 [citrate synthase presequence peptide]”, the kcat on human MP1 [1] (27 amino acid citrate synthase presequence peptide as MP1 substrate) came out at 1.1 min⁻¹. The Km on human MP1 [3] came out at 170 nM.

Turning to “Y↓GGFLRRQFK↓VVT↓RSQED▼PNAYYEEL▼FDV [Leumorphin (porcine), Leumorphin]”, at human MP1 [1], the kcat/Km came out at 63.5 ± 4.5 M × min^−1 × 10^5.

On to Somatostatin, for which the kcat/Km with human MP1 [1] turned out to be 41.7 ± 3.8 M × min^−1 × 10^5.

Turning to Y↓GGFLRR↓IRP▼KLKWDNQ [Dynorphin A], the kcat/Km on human MP1 [1] is 62.6 ± 6.8 M × min^−1 × 10^5.

Consider Insulin, for which the kcat/Km in the data set with human MP1 [1] is 0.03 ± 0.00 M × min^−1 × 10^5.
